From ChEMBL document CHEMBL1201862, “PubChem BioAssay data set” (2004)
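Method: 48-hour compound exposure of cells in 96-well plates, five concentrations, linear interpolation of endpoints. Here, GI50 denotes the concentration required for 50% inhibition of growth.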 Calls of active or inactive are those of the source. Rule as the data show it: active = GI50 up to about 1.1 µM and inactive = higher.

How the values were obtained:
Assay in all cases: DTP human tumour cell line panel, 48 h
NCI-H460 = system: NCI-H460
HOP-92 = system: HOP-92
ACHN = system: ACHN
HT-29 = system: HT-29
HCT-116 = system: HCT-116
SF-539 = system: SF-539
Hs-578T = system: Hs-578T
SNB-75 = system: SNB-75
OVCAR-3 = system: OVCAR-3
UACC-62 = system: UACC-62
SF-295 = system: SF-295
M14 = system: M14
DU-145 = system: DU-145
MDA-MB-231 = system: MDA-MB-231
NCI-H522 = system: NCI-H522
U-251 = system: U-251
CCRF-CEM = system: CCRF-CEM
OVCAR-8 = system: OVCAR-8
HOP-62 = system: HOP-62
SK-OV-3 = system: SK-OV-3

SMILES	GI50 (NCI-H460)	GI50 (HOP-92)	GI50 (ACHN)	GI50 (HT-29)	GI50 (HCT-116)	GI50 (SF-539)	GI50 (Hs-578T)	GI50 (SNB-75)	GI50 (OVCAR-3)	GI50 (UACC-62)	GI50 (SF-295)	GI50 (M14)	GI50 (DU-145)	GI50 (MDA-MB-231)	GI50 (NCI-H522)	GI50 (U-251)	GI50 (CCRF-CEM)	GI50 (OVCAR-8)	GI50 (HOP-62)	GI50 (SK-OV-3)
CCOC(=O)CCC(NC(=O)c1ccc(OCc2ccc3nc(-c4ccccc4)c(Cl)nc3c2)cc1)C(=O)OCC (stereo not given)	> 31.6 µM (inactive)	15.6 µM (inactive)	26.9 µM (inactive)	> 31.6 µM (inactive)	> 31.6 µM (inactive)	15.8 µM (inactive)	14.9 µM (inactive)	16.8 µM (inactive)	> 31.6 µM (inactive)	> 31.6 µM (inactive)	22 µM (inactive)	> 31.6 µM (inactive)	> 31.6 µM (inactive)	24.3 µM (inactive)	17.4 µM (inactive)	18.4 µM (inactive)	> 31.6 µM (inactive)	14.2 µM (inactive)	> 31.6 µM (inactive)	52.1 µM (inactive)
CC(C)(C)OC(=O)CN1CCNCCNCC1	> 100 µM (inactive)	> 100 µM (inactive)	> 100 µM (inactive)	> 100 µM (inactive)	> 100 µM (inactive)	> 100 µM (inactive)	> 100 µM (inactive)	> 100 µM (inactive)	> 100 µM (inactive)	> 100 µM (inactive)	> 100 µM (inactive)	> 100 µM (inactive)	> 100 µM (inactive)	> 100 µM (inactive)	> 100 µM (inactive)	> 100 µM (inactive)	> 100 µM (inactive)	> 100 µM (inactive)	> 100 µM (inactive)	> 100 µM (inactive)
CN(CCCNC(=O)c1nn(C)c2c1Cc1ccccc1-2)CCCNC(=O)c1nn(C)c2c1Cc1ccccc1-2	18 µM (inactive)	15.6 µM (inactive)	16.7 µM (inactive)	13.3 µM (inactive)	14.3 µM (inactive)	16.4 µM (inactive)	20.5 µM (inactive)	15.2 µM (inactive)	16.1 µM (inactive)	19.4 µM (inactive)	18.2 µM (inactive)	6.15 µM (inactive)	16.9 µM (inactive)	19.3 µM (inactive)	21.8 µM (inactive)	12.5 µM (inactive)	2.18 µM (inactive)	19.6 µM (inactive)	10.8 µM (inactive)	16 µM (inactive)
COc1ccc(NC(=S)NNC(=O)c2cc(-c3ccccc3)nc3ccccc23)cc1	16.1 µM (inactive)	10.6 µM (inactive)	22.1 µM (inactive)	19.9 µM (inactive)	12.4 µM (inactive)	13.2 µM (inactive)	24 µM (inactive)	16.1 µM (inactive)	12 µM (inactive)	11.5 µM (inactive)	3.5 µM (inactive)	15.4 µM (inactive)	18.1 µM (inactive)	22.5 µM (inactive)	17.1 µM (inactive)	15.5 µM (inactive)	12.9 µM (inactive)	17.2 µM (inactive)	15.1 µM (inactive)	0.479 µM (active)
CCCOC(=O)c1cc(O)c(O)c(O)c1 [PROPYL GALLATE]	30.1 µM (inactive)	60.4 µM (inactive)	46.2 µM (inactive)	32.2 µM (inactive)	20.8 µM (inactive)	10.9 µM (inactive)	17.5 µM (inactive)	40.3 µM (inactive)	25.7 µM (inactive)	24.7 µM (inactive)	47.5 µM (inactive)	20.8 µM (inactive)	30.3 µM (inactive)	58.1 µM (inactive)	8.2 µM (inactive)	56.4 µM (inactive)	> 100 µM (inactive)	27.9 µM (inactive)	33.8 µM (inactive)	> 100 µM (inactive)
